In patent EP3383875B1, “3-PYRIMIDINYL PYRROLO [2,3-B] PYRIDINE AS ANTICANCER AGENTS AND THE PROCESS FOR THE PREPARATION THEREOF” (Council Of Scientific & Industrial Research, priority 2015, dated 2017):
Like-named read-outs stand apart in the source and are kept apart here.

Key:
[1] = tested on: MDA-MB435; assay: MTT assay on cancer cell line MDA-MB435; assay type: cell-based, Human; settings: Homo sapiens, MDA-MB-435
Experimental: (§1) Cell culture, growth conditions and treatments. […] Different molecules were dissolved in DMSO and were delivered to cell cultures in complete medium.

[2] = tested on: PC-3; assay: MTT assay on cancer cell line PC-3; assay type: cell-based, human; settings: Homo sapiens
Experimental: as §1

[3] = tested on: SHSY-5Y; assay: MTT assay on cancer cell line SHSY-5Y; assay type: cell-based, human; settings: Homo sapiens, SH-SY5Y
Experimental: as §1

[4] = tested on: HCT-116; assay: MTT assay on cancer cell line HCT-116; assay type: cell-based, human; settings: Homo sapiens
Experimental: as §1

[5] = molecular target: CDK-2/cyclin A (Homo sapiens, UniProt P24941); assay: CDK inhibition assay, CDK-2/cyclin A against Histone HI, 33P-ATP; assay type: biochemical; settings: at 500 nM
Procedure, shortened: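 CDK-2/cyclin A (5-20 mU) phosphorylating Histone HI (1 mg/ml) in 50 mM Hepes pH 7.5, 100 mM NaCl, 10 mM Mg acetate, 0.02 mM [33P-γ-ATP], 30 min at room temperature. Stopped with orthophosphoric acid, captured on P81 filters for radiometric readout.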

[6] = molecular target: CDK-9/Cyclin T1 (Homo sapiens, UniProt P50750); assay: CDK inhibition assay, CDK-9/Cyclin T1 against substrate peptide, 33P-ATP; assay type: biochemical; settings: at 500 nM
Chain of CDK-9/Cyclin T1 (P50750 whole entry): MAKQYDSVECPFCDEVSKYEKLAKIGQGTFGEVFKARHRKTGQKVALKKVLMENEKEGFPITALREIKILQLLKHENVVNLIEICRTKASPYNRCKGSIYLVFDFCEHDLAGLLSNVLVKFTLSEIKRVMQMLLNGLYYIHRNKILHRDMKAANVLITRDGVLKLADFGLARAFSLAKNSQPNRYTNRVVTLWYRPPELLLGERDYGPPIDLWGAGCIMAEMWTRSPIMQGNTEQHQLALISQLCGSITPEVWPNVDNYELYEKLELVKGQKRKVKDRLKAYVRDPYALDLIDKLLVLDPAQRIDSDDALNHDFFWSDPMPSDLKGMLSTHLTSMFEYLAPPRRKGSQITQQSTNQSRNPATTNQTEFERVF
Chain of CDK-9/Cyclin T1 (O60563 whole entry partner): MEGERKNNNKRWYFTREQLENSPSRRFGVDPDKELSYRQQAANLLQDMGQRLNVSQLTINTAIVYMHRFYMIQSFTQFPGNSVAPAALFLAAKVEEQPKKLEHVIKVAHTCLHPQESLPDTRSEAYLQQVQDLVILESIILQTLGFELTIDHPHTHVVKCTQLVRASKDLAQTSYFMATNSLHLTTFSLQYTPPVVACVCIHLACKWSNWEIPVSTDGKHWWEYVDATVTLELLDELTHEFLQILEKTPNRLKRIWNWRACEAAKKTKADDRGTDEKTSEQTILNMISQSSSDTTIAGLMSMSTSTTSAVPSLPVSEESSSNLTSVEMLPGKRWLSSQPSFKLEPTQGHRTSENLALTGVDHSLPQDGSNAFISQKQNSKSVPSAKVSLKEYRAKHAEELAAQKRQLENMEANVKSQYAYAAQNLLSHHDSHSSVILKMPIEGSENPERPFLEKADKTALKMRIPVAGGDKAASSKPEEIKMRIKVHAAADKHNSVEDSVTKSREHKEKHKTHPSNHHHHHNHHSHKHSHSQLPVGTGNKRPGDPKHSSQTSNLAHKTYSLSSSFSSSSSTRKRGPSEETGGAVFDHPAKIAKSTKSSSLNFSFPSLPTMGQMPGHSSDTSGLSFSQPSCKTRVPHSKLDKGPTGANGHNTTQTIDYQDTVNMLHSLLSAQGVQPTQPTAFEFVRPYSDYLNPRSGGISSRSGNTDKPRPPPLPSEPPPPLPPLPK
Experimental: (50-1000 cpm/pmole) and incubated for 30 min at room temperature. Assays were stopped by addition of 5 µl of 0.5 M (3%) orthophosphoric acid and then harvested onto P81 Unifilter plates with a wash buffer of 50 mM orthophosphoric acid.

[7] = tested on: MCF-7; assay: MTT assay on cancer cell line MCF-7; assay type: cell-based, Human; settings: Homo sapiens
Experimental: as §1

[8] = MDA-MB435, at 10µM, Table 9 (for reference), read-out: In vitro cell inhibition, % of inhibition, MDA-MB435
[9] = Table 9 (for reference), read-out: In vitro cell inhibition, % of inhibition, PC-3
[10] = SHSY-5Y, Table 9 (for reference), read-out: In vitro cell inhibition, % of inhibition, SHSY-5Y
[11] = read-out: inhibition against SHSY-5Y cell lines
[12] = at 10µM, Table 9 (for reference), read-out: In vitro cell inhibition, % of inhibition, HCT-116
[13] = Table-7, read-out: In vitro CDK2 % of inhibition
[14] = read-out: inhibition against CDK2
[15] = Table-7, read-out: In vitro CDK9 % of inhibition
[16] = read-out: inhibition against CDK9
[17] = MCF7, MCF-7, Table 9 (for reference), read-out: In vitro cell inhibition, % of inhibition, MCF-7
[18] = MCF7, read-out: inhibition against MCF-7 cell lines
[19] = MDA-MB435, at 10µM, Table 8, read-out: In vitro cell inhibition, % of inhibition, MDA-MB435
[20] = Table 8, read-out: In vitro cell inhibition, % of inhibition, PC-3
[21] = SHSY-5Y, Table 8, read-out: In vitro cell inhibition, % of inhibition, SHSY-5Y
[22] = at 10µM, Table 8, read-out: In vitro cell inhibition, % of inhibition, HCT-116
[23] = Table-6, read-out: In vitro CDK2 % of inhibition
[24] = Table-6, read-out: In vitro CDK9 % of inhibition
[25] = MCF7, MCF-7, Table 8, read-out: In vitro cell inhibition, % of inhibition, MCF-7

inhibition at 0.5 µM [5, 13] | inhibition at 0.5 µM [5, 14] | inhibition at 0.5 µM [6, 15] | inhibition at 0.5 µM [6, 16] | inhibition at 0.5 µM [5, 23] | inhibition at 0.5 µM [6, 24] | SMILES | inhibition at 10 µM [1, 8] | inhibition at 10 µM [2, 9] | inhibition at 10 µM [3, 10] | inhibition at 10 µM [3, 11] | inhibition at 10 µM [4, 12] | inhibition at 10 µM [7, 17] | inhibition at 10 µM [7, 18] | inhibition at 10 µM [1, 19] | inhibition at 10 µM [2, 20] | inhibition at 10 µM [3, 21] | inhibition at 10 µM [4, 22] | inhibition at 10 µM [7, 25] | other results
> 70% | > 70% | > 70% | > 70% | – | – | CSc1ccccc1-c1cnc2[nH]cc(-c3ccnc(N)n3)c2c1 [1C9, 4-(5-(2-(methylthio)phenyl)-1H-pyrrolo[2,3-b]pyridin-3-yl)pyrimidin-2-amine] | > 70% | > 70% | > 70% | > 70% | > 50% | > 70% | > 70% | – | – | – | – | – | –
– | > 70% | – | > 70% | > 70% | > 70% | Clc1ccc(-c2cnc3[nH]cc(-c4ccnc(NC5CC5)n4)c3c2)cc1 [1A12, 4-(5-(4-chlorophenyl)-1H-pyrrolo[2,3-b]pyridin-3-yl)-N-cyclopropylpyrimidin-2-amine] | – | – | – | > 70% | – | – | > 70% | > 70% | > 50% | > 70% | > 70% | > 70% | inhibition at 10 µM ([1]; at 10 µM, read-out: inhibition against MDAMB-435 cell lines): > 70%; inhibition at 10 µM ([2]; read-out: inhibition against PC-3 cell lines): > 50%; inhibition at 10 µM ([4]; at 10 µM, read-out: inhibition against HCT-116 cell lines): > 70%
> 70% | > 70% | > 70% | > 70% | – | – | Nc1nccc(-c2c[nH]c3ncc(-c4cccc(C(F)(F)F)c4)cc23)n1 [1C4, 4-(5-(3-(trifluoromethyl)phenyl)-1H-pyrrolo[2,3-b]pyridin-3-yl)pyrimidin-2-amine] | > 70% | < 50% | > 70% | > 70% | > 70% | > 70% | > 70% | – | – | – | – | – | –
– | > 70% | – | > 70% | > 70% | > 70% | c1cc(-c2c[nH]c3ncc(-c4ccoc4)cc23)nc(NC2CC2)n1 [1A16, N-cyclopropyl-4-(5-(furan-3-yl)-1H-pyrrolo[2,3-b]pyridin-3-yl)pyrimidin-2-amine] | – | – | – | – | – | – | > 50% | > 70% | > 70% | > 50% | > 70% | > 50% | –
